Test system: adenylate cyclase
Test: cAMP assay of cryopreserved AD293 cells, forskolin stimulation
Assay type: cell-based, human
Excerpt: As a control, rise in intracellular cAMP concentrations was also separately monitored when the ubiquitously expressed adenylate cyclase activity was challenged with its respective agonist forskolin. In the AD293 cell line only the adenylate cyclase activity was monitored.
As the DiscoveRx assay systems are designed to monitor intracellular cAMP concentrations the assay medium is supplemented with the general phosphodiesterase inhibitor isobutylmethylxanthine (IBMX) at a final concentration of 1 mM.
Forskolin assay—Forskolin (Sigma F6886-10 mg) was dissolved in DMSO to a stock concentration of 10 mM. This was then serially diluted using half-log dilutions to generate a final forskolin concentration range in the assay medium ranging from 316 μM-3.16 nM.
DiscoveRx HITHUNTER™ cAMP II assay—This was performed according to the manufacturer's instructions and briefly involved the following. On resurrection from storage at −140° C., cells frozen on cell culture treated 96-well plates were allowed to thaw. On defrosting the cryopreservation medium was removed and the cells washed twice with PBS. […]
Typically for an assay performed in a 96-well cell culture treated plate 20,000 cells were used. […] The assay plates were incubated at room temperature for 4 hrs and the cAMP concentration determined by monitoring the generation of the luminescent signal using the LEADSEEKER™ Instrument platform.

With C=C[C@@]1(C)CC(=O)[C@]2(O)[C@@]3(C)[C@@H](O)CCC(C)(C)[C@@H]3[C@H](O)[C@H](OC(C)=O)[C@@]2(C)O1 [forskolin, Forskolin] the “S:B” value (minus poly lysine) was 2.5 and the “S:B” value (plus poly-lysine) was 3.0.

From patent US20110250632A1 (priority 2008, published 2011)
